# Test: FFA-NIC cocrystal solubility and phase solubility diagrams (PSD)
# Assay type: physicochemical
# Conditions: for FFA concentration at eutectic point / Ksp / SAB: 37°C
# Protocol: For a 1:1 AB cocrystal without consideration of ionization of each component, its molar solubility SAB is calculated as [21]1 SAB=Ksp=CACB where Ksp is the solubility product of the AB cocrystal, and CA and CB (μmol/mL) are the molar concentrations of A and B where the solution is in equilibrium with the solid residues including cocrystal solids. When the solution is in equilibrium with both the drug and cocrystal solids, it is called the eutectic point where the component concentrations in solution are designated as CA_eut and CB_eut .
# In order to determine the FFA-NIC cocrystal solubility, the physical mixtures of the FFA I and NIC solids and a constant 10 mL of the medium (i.e., DDW or PBS pH 4.5 in the absence and presence of a predissolved polymer, i.e., 0.2 mg/mL PVP-VA, 1 mg/mL PEG or 0.2 mg/mL SLP, or a combination, i.e., 0.2 mg/mL PVP-VA + 1 mg/mL PEG, 0.2 mg/mL PVP-VA + 0.2 mg/mL SLP), representing 10% w/w and 90% w/w of the total weight of a sample, were used. More than eight different ratios of the FFA I and NIC solids in the physical mixtures (Table S1 in the supporting materials) were prepared and then each of them was transferred into a 20 mL glass vial containing a magnetic stirrer (3 × 20 mm) with 10 mL of the solution prepared above. The samples were placed in the Polar Bear Plus Crystal (Cambridge Reactor Design Ltd, UK) and kept at 37 ± 0.5°C for 24 h. After that, the supernatant of each of the samples was separated from excess solids by centrifugation at 13,000 RPM for 1 min in an MSE Micro Centaur. HPLC was used to determine the concentrations of FFA and NIC. Solid residues obtained from the experiments were dried at room temperature and analysed by PXRD. If the FFA-NIC cocrystal solids were found in the solid residues of a sample ( i ), the molar concentrations of FFA ( CFFA,iexp ) and NIC ( CNIC,iexp ) (μmol/mL) obtained were used to determine the solubility product Ksp,iexp of FFA-NIC cocrystal by2 Ksp,iexp=CFFA,iexp×CNIC,iexp
# The optimal solubility product Kspoptimal of FFA-NIC cocrystal is obtained by minimizing the sum square error (SSE) of the optimal value with each of the individual experimental values KSP,iexp .3 Kspoptimal=min∑i=1n(Kspoptimal-ksp,iexp)^2 where n is the total number of vials having the cocrystal solids in the residues.
# In this work, the optimal value of Kspopitmal was obtained using the inbuilt “fminbnd” function in MATLAB. If both the FFA-NIC cocrystal and FFA I solids were found in the solid residues of a sample, the measured concentrations of FFA ( CFFAexp ) and NIC ( CNICexp ) were the transition concentrations at the eutectic point.
# [1] = DDW with PEG (1 mg/mL) + PVP-VA (0.2 mg/mL)
# [2] = DDW with SLP (0.2 mg/mL) + PVP-VA (0.2 mg/mL)
# [3] = PBS pH 4.5 with PEG (1 mg/mL) + PVP-VA (0.2 mg/mL)
# [4] = PBS pH 4.5 with PVP-VA (0.2 mg/mL)
# [5] = PBS pH 4.5 with SLP (0.2 mg/mL)
# [6] = PBS pH 4.5 with SLP (0.2 mg/mL) + PVP-VA (0.2 mg/mL)
smiles,measurement,setting,value
NC(=O)c1cccnc1.O=C(O)c1ccccc1Nc1cccc(C(F)(F)F)c1 [FFA-NIC cocrystal],Ratio of FFA concentration at eutectic point with parent drug,DDW with PEG (1 mg/mL),4.47
same,Ratio of FFA concentration at eutectic point with parent drug,[1],7.27
same,Ratio of cocrystal solubility with parent drug,[1],4382.27
same,FFA concentration at eutectic point,[1],0.26 µmol/mL
same,Ksp,[1],156.76 μmol^2/mL^2
same,SAB,[1],12.52 µmol/mL
same,FFA concentration at eutectic point,DDW with PEG (1 mg/mL),0.16 µmol/mL
same,Ksp,DDW with PEG (1 mg/mL),136.09 μmol^2/mL^2
same,SAB,DDW with PEG (1 mg/mL),11.67 µmol/mL
same,Ratio of FFA concentration at eutectic point with parent drug,DDW with PVP-VA (0.2 mg/mL),23.20
same,Ratio of cocrystal solubility with parent drug,DDW with PVP-VA (0.2 mg/mL),4805.23
same,FFA concentration at eutectic point,DDW with PVP-VA (0.2 mg/mL),0.83 µmol/mL
same,Ksp,DDW with PVP-VA (0.2 mg/mL),171.89 μmol^2/mL^2
same,SAB,DDW with PVP-VA (0.2 mg/mL),13.11 µmol/mL
same,Ratio of FFA concentration at eutectic point with parent drug,DDW with SLP (0.2 mg/mL),4.47
same,Ratio of cocrystal solubility with parent drug,DDW with SLP (0.2 mg/mL),3218.49
same,Ratio of FFA concentration at eutectic point with parent drug,[2],31.03
same,Ratio of cocrystal solubility with parent drug,[2],6264.77
same,FFA concentration at eutectic point,[2],1.11 µmol/mL
same,Ksp,[2],224.10 μmol^2/mL^2
same,SAB,[2],14.97 µmol/mL
same,FFA concentration at eutectic point,DDW with SLP (0.2 mg/mL),0.16 µmol/mL
same,Ratio of FFA concentration at eutectic point with parent drug,"DDW, pure solution",6.71
same,Ratio of cocrystal solubility with parent drug,"DDW, pure solution",2649.04
same,FFA concentration at eutectic point,"DDW, pure solution",0.24 µmol/mL
same,Ksp,"DDW, pure solution",94.76 μmol^2/mL^2
same,SAB,"DDW, pure solution",9.73 µmol/mL
same,Ratio of FFA concentration at eutectic point with parent drug,"PBS pH 4.5, pure solution",2.46
same,Ratio of cocrystal solubility with parent drug,"PBS pH 4.5, pure solution",1535.91
same,FFA concentration at eutectic point,"PBS pH 4.5, pure solution",0.16 µmol/mL
same,Ksp,"PBS pH 4.5, pure solution",99.78 μmol^2/mL^2
same,SAB,"PBS pH 4.5, pure solution",9.99 µmol/mL
same,Ratio of FFA concentration at eutectic point with parent drug,PBS pH 4.5 with PEG (1 mg/mL),4.93
same,Ratio of cocrystal solubility with parent drug,PBS pH 4.5 with PEG (1 mg/mL),1601.02
same,Ratio of FFA concentration at eutectic point with parent drug,[3],10.16
same,Ratio of cocrystal solubility with parent drug,[3],2171.41
same,FFA concentration at eutectic point,[3],0.66 µmol/mL
same,Ksp,[3],141.26 μmol^2/mL^2
same,SAB,[3],11.89 µmol/mL
same,FFA concentration at eutectic point,PBS pH 4.5 with PEG (1 mg/mL),0.32 µmol/mL
same,Ksp,PBS pH 4.5 with PEG (1 mg/mL),104.01 μmol^2/mL^2
same,SAB,PBS pH 4.5 with PEG (1 mg/mL),10.20 µmol/mL
same,Ratio of FFA concentration at eutectic point with parent drug,[4],6.93
same,Ratio of cocrystal solubility with parent drug,[4],2040.80
same,FFA concentration at eutectic point,[4],0.45 µmol/mL
same,Ksp,[4],132.58 μmol^2/mL^2
same,SAB,[4],11.51 µmol/mL
same,Ratio of FFA concentration at eutectic point with parent drug,[5],2.46
same,Ratio of cocrystal solubility with parent drug,[5],1772.19
same,Ratio of FFA concentration at eutectic point with parent drug,[6],10.16
same,Ratio of cocrystal solubility with parent drug,[6],2443.18
same,FFA concentration at eutectic point,[6],0.66 µmol/mL
same,Ksp,[6],158.72 μmol^2/mL^2
same,SAB,[6],12.60 µmol/mL
same,FFA concentration at eutectic point,[5],0.16 µmol/mL
same,potential increase in the FFA solubility based on FFA concentration at eutectic point,in DDW,30 fold
same,potential increase in the FFA solubility based on FFA concentration at eutectic point,in PBS pH 4.5,tenfold
same,increase of the FFA solubility achieved by cocrystal (by Eq. 1 cocrystal solubility),"in some cases, Table III",> 1000 fold

# — PMC10447287, “Optimisation of Pharmaceutical Cocrystal Dissolution Performance through a Synergistic Precipitation Inhibition” (Pharmaceutical Research, 2023)
